Data published in ChEMBL document CHEMBL1201862, “PubChem BioAssay data set” (2004).
Calls of active or inactive are those of the source.

Assays:
[1] = molecular target: T1, Heat shock factor protein 1 (Mus musculus, UniProt P38532); assay: inhibition of MG132-induced HSE-luciferase signal, confirmation, cell-based, NIH3T3, luminescence, dose retest (AID 2382); assay type: functional;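 also: NIH3T3 fibroblasts with HSF1-driven luciferase reporter stressed by proteasome inhibitor MG132; luminescence from HSF1-driven luciferase expression after 8 hours of MG132 stress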
T1 sequence (P38532 whole entry): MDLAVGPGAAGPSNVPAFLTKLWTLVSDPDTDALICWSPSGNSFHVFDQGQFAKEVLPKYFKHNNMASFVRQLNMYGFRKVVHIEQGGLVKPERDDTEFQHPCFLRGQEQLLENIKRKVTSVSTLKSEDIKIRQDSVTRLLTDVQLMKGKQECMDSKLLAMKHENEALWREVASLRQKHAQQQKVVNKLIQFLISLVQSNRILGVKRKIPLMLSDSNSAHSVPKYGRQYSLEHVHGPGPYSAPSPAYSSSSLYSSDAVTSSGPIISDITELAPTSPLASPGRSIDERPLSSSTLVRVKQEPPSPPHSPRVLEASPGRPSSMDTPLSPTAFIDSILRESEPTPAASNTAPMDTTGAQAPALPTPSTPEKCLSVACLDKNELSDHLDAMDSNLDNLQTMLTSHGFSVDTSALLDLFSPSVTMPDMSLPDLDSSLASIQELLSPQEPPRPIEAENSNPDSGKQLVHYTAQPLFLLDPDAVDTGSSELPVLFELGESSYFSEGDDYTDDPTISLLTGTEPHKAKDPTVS

[2] = inhibitors of SNCA 5'UTR-driven translation, confirmation, luminescence, H4 neuroglioblastoma cells, dose confirmation (AID 2454); assay type: functional, cell-based;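 also: H4 neuroglioblastoma cells carrying an alpha-synuclein 5'UTR luciferase reporter; potency for inhibition of the luciferase signal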
[3] = Luminescence Cell-Based Dose Response HTS to Identify Inhibitors of 5'UTR Stem-Loop Driven Prion Protein mRNA Translation in H4 Neuroglioblastoma Cells. [Related pubchem assays: 1827 (Project Summary), 1813 (Primary HTS)]; assay type: functional
[4] = molecular target: E3 ubiquitin-protein ligase Mdm2/Protein Mdm4 (Homo sapiens, UniProt O15151+Q00987); assay: Mdm2-MdmX interaction inhibitors, dose response, luminescence detection (AID 504593); assay type: functional
[5] = molecular target: Luciferin 4-monooxygenase (Photinus pyralis, UniProt P08659); assay: Counter Screen for Luciferase-based Assay Positives. [Related pubchem assays: 620, 618, 411 ]
[6] = cytotoxicity in HEK-293T cells, dose response, cytotoxicity control for TCR NF-kB inhibitor project, luminescence, T-cell screen hits (AID 489026); assay type: functional, cell-based;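 also: cells exposed to compound about 14 hours before the viability readout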
cells = assay type: functional, cell-based
[7] = luciferase reporter signal reduction – luminescence, H4-C neuroglioblastoma cells, dose response (AID 2458); assay type: functional, cell-based;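 also: H4 neuroglioblastoma cells stably carrying a luciferase reporter gene fusion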
HT-1080 = assay: cytotoxicity in HT1080 fibrosarcoma cells, cell-based, fluorescence readout (AID 620); assay type: functional; details: Homo sapiens
[8] = inhibitors of firefly luciferase expression or activity, dose response, H4 neuroglioma cells, luminescence (AID 1990); assay type: functional, cell-based
[9] = inhibitors of SNCA 5'UTR-driven reporter translation, confirmation, H4 neuroglioma cells, luminescence (AID 1988); assay type: functional, cell-based
[10] = molecular target: DNA dC->dU-editing enzyme APOBEC-3G (Homo sapiens, UniProt Q9HC16); assay type: functional;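 also: Dose-response counterscreen measuring inhibition of APOBEC3G DNA deaminase activity, run while confirming APOBEC3A inhibitors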
[11] = molecular target: DNA dC->dU-editing enzyme APOBEC-3A (Homo sapiens, UniProt P31941); assay: Dose Response confirmation of small molecule APOBEC3A DNA Deaminase Inhibitors via a fluorescence-based single-stranded DNA deaminase assay. [Related pubchem assays (depositor defined):AID493011, AID493024]; assay type: functional
[12] = molecular target: DNA damage-inducible transcript 3 protein (Mus musculus, UniProt P35639); assay type: functional, Cricetulus griseus
Cytochrome P450 2C19 = Cytochrome P450 2C19 (Homo sapiens, UniProt P33261); assay: Cytochrome panel assay with activity outcomes. Panel member name: p450-cyp2c19 Compounds with AC50 equal or less than 10 uM are considered active; assay type: functional; details: read-out: AC50
[13] = molecular target: T2, Lytic switch protein BZLF1 (Epstein-Barr virus (strain B95-8) (HHV-4) (Human herpesvirus 4), UniProt P03206); assay: EBV ZTA inhibitors, dose response, counter-screen for EBNA-1 inhibitor project, biochemical, fluorescence polarization, Epstein-Barr virus, 1536-well (AID 2377); parameters: species or system human gammaherpesvirus 4;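 also: fluorescence polarization of Cy5-labelled ZRE DNA probe bound by purified Zta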
T2 sequence (P03206 whole entry): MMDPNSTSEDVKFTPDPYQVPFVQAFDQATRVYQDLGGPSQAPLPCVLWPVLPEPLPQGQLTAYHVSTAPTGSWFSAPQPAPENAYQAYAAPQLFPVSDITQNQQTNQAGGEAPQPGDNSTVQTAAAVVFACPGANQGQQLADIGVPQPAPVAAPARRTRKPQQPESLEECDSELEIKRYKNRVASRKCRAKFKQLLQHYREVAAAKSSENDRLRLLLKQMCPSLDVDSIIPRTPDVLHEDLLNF

[14] = molecular target: T3, Epstein-Barr nuclear antigen 1 (Epstein-Barr virus (strain B95-8) (HHV-4) (Human herpesvirus 4), UniProt P03211); assay: EBNA-1 inhibitors, dose response, biochemical, fluorescence polarization, 1536-well (AID 2381); parameters: species or system human gammaherpesvirus 4;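 also: fluorescence polarization of a Cy5 DNA probe bound by EBNA-1 protein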
T3 sequence (P03211 whole entry): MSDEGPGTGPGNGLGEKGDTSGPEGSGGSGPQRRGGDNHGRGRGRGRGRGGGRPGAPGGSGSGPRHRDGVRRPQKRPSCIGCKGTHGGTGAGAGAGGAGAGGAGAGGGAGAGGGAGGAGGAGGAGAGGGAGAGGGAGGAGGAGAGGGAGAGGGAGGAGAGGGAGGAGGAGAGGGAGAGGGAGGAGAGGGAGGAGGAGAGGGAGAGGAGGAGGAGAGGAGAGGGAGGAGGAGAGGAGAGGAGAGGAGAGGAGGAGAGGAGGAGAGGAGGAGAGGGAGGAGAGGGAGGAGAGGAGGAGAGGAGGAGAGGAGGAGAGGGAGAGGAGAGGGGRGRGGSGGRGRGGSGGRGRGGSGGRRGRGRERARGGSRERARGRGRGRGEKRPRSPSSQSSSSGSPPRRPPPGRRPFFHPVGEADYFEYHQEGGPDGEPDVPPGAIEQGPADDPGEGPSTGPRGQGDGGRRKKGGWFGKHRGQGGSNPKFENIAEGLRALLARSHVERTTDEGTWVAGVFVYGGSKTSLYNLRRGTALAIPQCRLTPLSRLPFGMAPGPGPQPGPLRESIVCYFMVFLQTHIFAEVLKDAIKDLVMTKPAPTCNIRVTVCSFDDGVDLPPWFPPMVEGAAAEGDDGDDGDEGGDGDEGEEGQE

[15] = molecular target: T4, Alkaline phosphatase, tissue-nonspecific isozyme (Homo sapiens, UniProt P05186); assay: human TNAP enzyme inhibitors, SAR follow-up, biochemical, luminescent, dose response (AID 1056)
T4 sequence (P05186 whole entry): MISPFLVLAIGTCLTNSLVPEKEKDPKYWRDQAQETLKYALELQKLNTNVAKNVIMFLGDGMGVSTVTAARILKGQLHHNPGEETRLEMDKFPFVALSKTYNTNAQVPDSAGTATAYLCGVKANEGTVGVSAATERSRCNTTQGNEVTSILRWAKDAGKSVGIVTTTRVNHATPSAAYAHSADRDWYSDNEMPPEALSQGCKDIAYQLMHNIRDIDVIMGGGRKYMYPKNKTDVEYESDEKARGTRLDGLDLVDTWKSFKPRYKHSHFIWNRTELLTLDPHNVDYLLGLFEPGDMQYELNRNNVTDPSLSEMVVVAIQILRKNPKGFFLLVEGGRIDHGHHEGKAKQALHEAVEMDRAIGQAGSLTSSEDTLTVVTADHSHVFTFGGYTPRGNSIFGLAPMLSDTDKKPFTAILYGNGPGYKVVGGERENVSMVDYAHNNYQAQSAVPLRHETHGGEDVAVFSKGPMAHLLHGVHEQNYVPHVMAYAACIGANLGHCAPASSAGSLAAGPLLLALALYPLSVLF

[16] = molecular target: Alkaline phosphatase, placental type (Homo sapiens, UniProt P05187); assay: PLAP enzyme inhibitors, confirmation, biochemical, luminescence (AID 1512); assay type: functional
[17] = molecular target: Glyceraldehyde-3-phosphate dehydrogenase (Homo sapiens, UniProt P04406)
Large T antigen = Large T antigen (Simian virus 40, UniProt P03070); assay type: functional, Betapolyomavirus macacae;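 also: Confirmatory-stage PubChem screen for compounds that inhibit SV40 T antigen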
Sequence of Large T antigen (P03070 whole entry): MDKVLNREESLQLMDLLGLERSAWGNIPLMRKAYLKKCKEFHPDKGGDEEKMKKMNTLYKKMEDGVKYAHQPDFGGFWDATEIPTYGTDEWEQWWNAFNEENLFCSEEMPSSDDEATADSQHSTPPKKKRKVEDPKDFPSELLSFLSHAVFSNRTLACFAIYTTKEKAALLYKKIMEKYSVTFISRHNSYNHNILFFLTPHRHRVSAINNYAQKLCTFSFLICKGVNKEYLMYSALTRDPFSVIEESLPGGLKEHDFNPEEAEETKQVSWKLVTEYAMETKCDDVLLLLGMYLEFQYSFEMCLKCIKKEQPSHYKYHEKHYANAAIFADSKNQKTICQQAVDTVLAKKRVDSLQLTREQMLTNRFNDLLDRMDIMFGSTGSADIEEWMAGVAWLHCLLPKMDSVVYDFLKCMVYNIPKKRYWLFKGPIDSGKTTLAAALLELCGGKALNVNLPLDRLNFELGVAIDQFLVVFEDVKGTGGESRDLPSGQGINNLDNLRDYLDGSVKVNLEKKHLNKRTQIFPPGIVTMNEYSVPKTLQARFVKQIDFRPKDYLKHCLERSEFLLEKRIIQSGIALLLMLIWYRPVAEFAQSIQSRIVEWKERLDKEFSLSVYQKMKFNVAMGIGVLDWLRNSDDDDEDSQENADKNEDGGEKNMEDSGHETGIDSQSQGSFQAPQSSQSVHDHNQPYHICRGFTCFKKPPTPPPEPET

Sequence of Alkaline phosphatase, placental type (P05187 whole entry): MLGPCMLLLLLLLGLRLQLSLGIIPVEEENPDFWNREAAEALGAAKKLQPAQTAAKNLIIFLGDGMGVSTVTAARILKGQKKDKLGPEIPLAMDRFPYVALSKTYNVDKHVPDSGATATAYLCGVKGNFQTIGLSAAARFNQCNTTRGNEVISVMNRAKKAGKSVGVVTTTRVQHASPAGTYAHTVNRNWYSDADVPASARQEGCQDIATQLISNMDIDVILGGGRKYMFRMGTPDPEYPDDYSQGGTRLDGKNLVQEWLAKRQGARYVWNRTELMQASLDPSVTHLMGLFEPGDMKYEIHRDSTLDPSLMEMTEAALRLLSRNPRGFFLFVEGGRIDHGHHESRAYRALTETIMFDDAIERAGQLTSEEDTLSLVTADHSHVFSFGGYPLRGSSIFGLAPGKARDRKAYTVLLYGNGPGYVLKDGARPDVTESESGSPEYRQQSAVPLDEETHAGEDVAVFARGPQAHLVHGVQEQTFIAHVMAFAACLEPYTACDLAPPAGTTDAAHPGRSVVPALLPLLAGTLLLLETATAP
Sequence of Cytochrome P450 2C19 (P33261 whole entry): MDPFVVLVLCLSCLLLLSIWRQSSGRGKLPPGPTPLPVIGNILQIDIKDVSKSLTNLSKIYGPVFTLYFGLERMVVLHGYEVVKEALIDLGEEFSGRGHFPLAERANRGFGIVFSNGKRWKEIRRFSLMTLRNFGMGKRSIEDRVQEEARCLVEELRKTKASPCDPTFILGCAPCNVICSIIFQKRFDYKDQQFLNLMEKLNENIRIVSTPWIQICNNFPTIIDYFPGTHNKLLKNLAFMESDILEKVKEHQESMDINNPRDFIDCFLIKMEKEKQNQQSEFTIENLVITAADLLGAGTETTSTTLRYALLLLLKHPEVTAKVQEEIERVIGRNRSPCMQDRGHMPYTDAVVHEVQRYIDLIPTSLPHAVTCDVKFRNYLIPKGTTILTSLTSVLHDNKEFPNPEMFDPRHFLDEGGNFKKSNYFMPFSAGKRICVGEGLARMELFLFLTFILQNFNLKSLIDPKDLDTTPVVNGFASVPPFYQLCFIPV
Sequence of E3 ubiquitin-protein ligase Mdm2/Protein Mdm4 (Q00987 whole entry): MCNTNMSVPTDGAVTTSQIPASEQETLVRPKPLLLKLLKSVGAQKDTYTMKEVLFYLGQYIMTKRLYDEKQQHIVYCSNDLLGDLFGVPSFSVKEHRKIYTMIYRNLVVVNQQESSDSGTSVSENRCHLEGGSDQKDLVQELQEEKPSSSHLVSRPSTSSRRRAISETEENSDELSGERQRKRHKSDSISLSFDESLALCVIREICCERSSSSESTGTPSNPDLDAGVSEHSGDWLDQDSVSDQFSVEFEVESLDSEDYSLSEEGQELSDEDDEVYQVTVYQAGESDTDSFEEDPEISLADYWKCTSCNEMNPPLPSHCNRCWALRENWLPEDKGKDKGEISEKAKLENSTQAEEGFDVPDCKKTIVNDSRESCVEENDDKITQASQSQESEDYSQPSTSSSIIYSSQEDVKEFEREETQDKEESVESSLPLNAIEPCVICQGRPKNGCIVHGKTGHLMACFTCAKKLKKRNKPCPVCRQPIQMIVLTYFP
Sequence of E3 ubiquitin-protein ligase Mdm2/Protein Mdm4 (O15151 whole entry): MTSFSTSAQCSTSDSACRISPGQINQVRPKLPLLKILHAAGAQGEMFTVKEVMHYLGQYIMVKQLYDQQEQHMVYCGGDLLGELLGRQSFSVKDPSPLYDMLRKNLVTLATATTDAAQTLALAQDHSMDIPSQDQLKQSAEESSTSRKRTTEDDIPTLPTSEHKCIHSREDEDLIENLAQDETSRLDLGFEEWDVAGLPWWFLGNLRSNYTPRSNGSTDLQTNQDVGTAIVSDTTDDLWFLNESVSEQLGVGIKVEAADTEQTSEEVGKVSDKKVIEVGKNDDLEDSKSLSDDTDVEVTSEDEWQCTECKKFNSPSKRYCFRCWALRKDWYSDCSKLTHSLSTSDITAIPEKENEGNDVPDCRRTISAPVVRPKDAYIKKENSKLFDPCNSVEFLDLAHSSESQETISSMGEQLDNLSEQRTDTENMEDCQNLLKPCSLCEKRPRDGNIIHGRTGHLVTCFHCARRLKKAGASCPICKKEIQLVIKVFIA
Sequence of Glyceraldehyde-3-phosphate dehydrogenase (P04406 whole entry): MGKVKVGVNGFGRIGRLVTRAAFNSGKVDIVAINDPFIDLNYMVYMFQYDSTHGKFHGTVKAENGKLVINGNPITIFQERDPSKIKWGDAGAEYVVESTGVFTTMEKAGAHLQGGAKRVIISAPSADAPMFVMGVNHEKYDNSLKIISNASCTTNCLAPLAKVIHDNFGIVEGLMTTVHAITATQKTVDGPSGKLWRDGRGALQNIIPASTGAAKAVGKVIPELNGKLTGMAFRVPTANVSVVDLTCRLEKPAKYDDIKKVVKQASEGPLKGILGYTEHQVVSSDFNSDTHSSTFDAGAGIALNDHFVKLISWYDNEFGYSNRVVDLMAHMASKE
Sequence of DNA damage-inducible transcript 3 protein (P35639 whole entry): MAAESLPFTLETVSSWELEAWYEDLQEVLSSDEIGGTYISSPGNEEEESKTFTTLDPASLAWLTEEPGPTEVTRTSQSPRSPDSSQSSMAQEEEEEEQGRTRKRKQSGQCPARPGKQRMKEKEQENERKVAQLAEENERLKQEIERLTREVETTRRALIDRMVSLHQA
Sequence of DNA dC->dU-editing enzyme APOBEC-3G (Q9HC16 whole entry): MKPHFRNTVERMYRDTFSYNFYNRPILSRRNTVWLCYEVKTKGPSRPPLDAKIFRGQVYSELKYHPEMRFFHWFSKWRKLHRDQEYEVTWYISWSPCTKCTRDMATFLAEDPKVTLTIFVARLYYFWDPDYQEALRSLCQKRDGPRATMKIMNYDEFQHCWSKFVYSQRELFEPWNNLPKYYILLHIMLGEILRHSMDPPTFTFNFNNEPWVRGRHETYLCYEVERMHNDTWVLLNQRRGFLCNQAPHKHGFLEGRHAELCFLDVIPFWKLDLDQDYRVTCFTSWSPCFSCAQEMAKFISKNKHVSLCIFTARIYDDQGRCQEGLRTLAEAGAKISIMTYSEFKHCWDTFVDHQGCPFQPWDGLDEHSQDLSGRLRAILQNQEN
Sequence of DNA dC->dU-editing enzyme APOBEC-3A (P31941 whole entry): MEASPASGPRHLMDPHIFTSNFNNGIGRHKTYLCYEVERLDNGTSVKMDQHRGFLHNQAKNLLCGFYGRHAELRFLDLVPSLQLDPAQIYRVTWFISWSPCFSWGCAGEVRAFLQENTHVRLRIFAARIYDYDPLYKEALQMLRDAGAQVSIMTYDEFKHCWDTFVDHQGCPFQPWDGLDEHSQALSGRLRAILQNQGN
Sequence of Luciferin 4-monooxygenase (P08659 whole entry): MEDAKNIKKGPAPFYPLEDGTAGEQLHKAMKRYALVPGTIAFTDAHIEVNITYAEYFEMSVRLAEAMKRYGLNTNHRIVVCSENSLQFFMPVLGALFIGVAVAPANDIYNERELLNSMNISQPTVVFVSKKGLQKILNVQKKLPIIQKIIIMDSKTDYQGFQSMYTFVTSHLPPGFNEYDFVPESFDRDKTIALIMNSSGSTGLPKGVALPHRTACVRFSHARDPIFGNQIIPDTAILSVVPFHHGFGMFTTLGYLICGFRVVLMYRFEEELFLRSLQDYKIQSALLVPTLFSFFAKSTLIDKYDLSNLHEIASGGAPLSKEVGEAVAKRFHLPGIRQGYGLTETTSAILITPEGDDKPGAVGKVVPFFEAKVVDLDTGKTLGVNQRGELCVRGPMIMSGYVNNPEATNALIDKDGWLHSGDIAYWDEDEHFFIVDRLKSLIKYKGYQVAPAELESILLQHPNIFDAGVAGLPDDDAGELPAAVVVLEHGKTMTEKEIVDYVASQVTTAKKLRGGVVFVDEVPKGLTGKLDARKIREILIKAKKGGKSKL

## COCCn1c(C)cc(C2=NN=C(Nc3ccccc3F)SC2)c1C
[1]
  EC50: < 0.16 µM (active)
[2]
  EC50: 1.69 µM (active)
[3]
  EC50: < 0.1 µM (active)
[4]
  IC50: 1.33 µM (active)
[5]
  EC50: 2.67 µM (active)
[6]
  IC50: > 80 µM (inactive)
cells
  EC50: > 12 µM (not active)
[7]
  EC50: 1.3 µM (active)
HT-1080
  EC50: > 50 µM (not active)
[8]
  EC50: 8.18 µM (active)
[9]
  EC50: < 0.1 µM (active)

## COc1ccc(C)cc1NC(=O)CCCN1C(=O)NC(C)(C)C1=O
[10]
  IC50: 11.9 µM (active)
[11]
  IC50: 11 µM (active)

## Cc1cccc(OCC(=O)N/N=C\C=C\c2ccc3c(c2)OCO3)c1C
[12]
  Absolute IC50 (CHOP): 10 µM
Cytochrome P450 2C19
  AC50: 10 µM (inconclusive)
[13]
  IC50: > 111 µM (not active)
[14]
  IC50: 5.84 µM (active)

## Cc1n[nH]c2c1C(=O)CC(C)(C)C2
[15]
  IC50: 19.9 µM (active)
[16]
  IC50: > 100 µM (inactive)
[17]
  IC50: > 100 µM (not active)

## COCc1cc(C)nc(SCC(=O)c2ccc(O)c(O)c2)c1C#N
[16]
  IC50: 2.16 µM (active)
Large T antigen
  IC50: 3.71 µM (active)
